Where a name gives a salt, the structure may show the parent alone. Read-outs that look alike come from different tables or passages of the source.
Test system: cultured human mast cells (CHMC), IgE-induced degranulation
Assay: CHMC low cell density IgE activation: tryptase assay
Type: cell-based
Details: CHMC low cell density
Procedure: Inhibition of degranulation was measured at both low and high cell density by quantifying the release of the granule specific factors tryptase, histamine and hexosaminidase. Inhibition of release and/or synthesis of lipid mediators was assessed by measuring the release of leukotriene LTC4 and inhibition of release and/or synthesis of cytokines was monitored by quantifying TNF-α, IL-6 and IL-13. Tryptase and hexosaminidase were quantified using fluorogenic substrates as described in their respective examples. […] The protocols of the various assays are provided below.
A second phase is performed to convert the expanded CD34-negative progenitor cells into differentiated mucosal mast cells. These mucosal cultured human mast cells (“CHMC”) are derived from CD34+ cells isolated from umbilical cord blood and treated to form a proliferated population of CD34-negative progenitor cells, as described above. […] Also, the cytokine composition of the medium was modified such that it contained SCF (200 ng/mL) and recombinant human IL-6 (200 ng/mL; Peprotech, Catalog No. 200-06 reconstituted to 100 ug/mL in sterile 10 mM acetic acid) (“CM/SCF/IL-6 medium”).
Pellet CHMC cells (980 rpm, 10 min) and resuspend in pre-warmed MT. Add 65 ul of cells to each 96-well plate. Depending on the degranulation activity for each particular CHMC donor, load 1000-1500 cells/well. Mix four times followed by a 1 hr incubation at 37° C. […] Stimulate cells by adding 25 ul of 6× anti-IgE solution to the appropriate plates. Add 25 ul MT to un-stimulated control wells. Mix twice following addition of the anti-IgE. Incubate at 37° C. for 30 minutes. […] Spin plates at 1000 rpm for 10 min to pellet cells. Transfer 25 ul of supernatant to a 96-well black bottom plate and add 100 ul of freshly diluted tryptase substrate solution to each well. Incubate plates at room temperature for 30 min.
In Table 1, all reported values are IC50s (in μM). […] In Table 1, all reported values are IC50s (in μM).

[1] = 3pt, read-out: LD Tryptase, CHMC, IgE, 3pt
[2] = 8pt, read-out: LD Tryptase, CHMC, IgE, 8pt

Row | Compound | IC50 [1] | IC50 [2]
1 | COc1cc(Nc2ncc(F)c(Nc3ccc4c(n3)NC(=O)C(C)(C)O4)n2)cc(OC)c1OC.O=S(=O)(O)c1cccnc1 [Compound 678, N4-(2,2-Dimethyl-3-oxo-4H-5-pyrid[1,4]oxazin-6-yl)-5-fluoro-N2-(3,4,5-trimethoxyphenyl)-2,4-pyrimidinediamine 0.5 Pyridine-3-sulfonic Acid Salt] | < 10 µM | < 10 µM
2 | CCc1ccc(S(=O)(=O)O)cc1.COc1cc(Nc2ncc(F)c(Nc3ccc4c(n3)NC(=O)C(C)(C)O4)n2)cc(OC)c1OC [Compound 679, N4-(2,2-Dimethyl-3-oxo-4H-5-pyrid[1,4]oxazin-6-yl)-5-fluoro-N2-(3,4,5-trimethoxyphenyl)-2,4-pyrimidinediamine p-Ethylbenzenesulfonic Acid Salt] | < 10 µM | < 10 µM
3 | CNC(=O)Cn1ccc2cc(Nc3ncc(F)c(Nc4ccc5c(n4)NC(=O)C(C)(C)O5)n3)ccc21 [Compound 683, N4-(2,2-Dimethyl-3-oxo-4H-5-pyrid[1,4]oxazin-6-yl)-5-fluoro-N2-[1-(N-methylamino)carbonylmethyleneindol-5-yl]-2,4-pyrimidinediamine] | < 10 µM | < 10 µM
4 | Cc1cc(Nc2ncc(F)c(Nc3ccc4c(n3)NC(=O)C(C)(C)O4)n2)cc(C)c1Cl [Compound 684, N2-(4-Chloro-3,5-dimethylphenyl)-N4-(2,2-dimethyl-3-oxo-4H-5-pyrid[1,4]oxazin-6-yl)-5-fluoro-2,4-pyrimidinediamine p-Toluenesulfonic Acid Salt] | < 10 µM | –
5 | CC1(C)Oc2ccc(Nc3nc(Nc4cc(Cl)c(O)c(Cl)c4)ncc3F)nc2NC1=O [Compound 686, N4-(2,2-Dimethyl-3-oxo-4H-5-pyrid[1,4]oxazin-6-yl)-N2-(3,5-dichloro-4-hydroxyphenyl)-5-fluoro-2,4-pyrimidinediamine] | < 10 µM | < 10 µM
6 | CN1C(=O)C(C)(C)Oc2ccc(Nc3ncc(F)c(Nc4ccc5c(n4)N(C)C(=O)C(C)(C)O5)n3)nc21 [Compound 687, N2,N4-Bis(3-oxo-2,2,4-trimethyl-5-pyrid[1,4]oxazin-6-yl)-5-fluoro-2,4-pyrimidinediamine] | < 10 µM | –
7 | COC(=O)CN1C(=O)C(C)(C)Oc2ccc(Nc3ccnc(Nc4ccc5c(n4)N(CC(=O)OC)C(=O)C(C)(C)O5)n3)nc21 [Compound 688, N2,N4-Bis(2,2-dimethyl-4-carbomethoxymethyl-3-oxo-5-pyrid[1,4]oxazin-6-yl)-2,4-pyrimidinediamine] | > 10 µM | –
8 | COc1cc(Nc2ncc(F)c(Nc3ccc4c(n3)N(C)C(=O)C(C)(C)O4)n2)cc(OC)c1OC [Compound 689, 5-Fluoro-N4-(3-oxo-2,2,4-trimethyl-5-pyrid[1,4]oxazin-6-yl)-N2-(3,4,5-trimethoxyphenyl)-2,4-pyrimidinediamine] | – | < 10 µM
9 | COC(=O)CN1C(=O)C(C)(C)Oc2ccc(Nc3nc(Nc4cc(OC)c(OC)c(OC)c4)ncc3F)nc21 [Compound 690, N4-(2,2-Dimethyl-4-carbomethoxymethyl-3-oxo-5-pyrid[1,4]oxazin-6-yl)-5-fluoro-N2-(3,4,5-trimethoxyphenyl)-2,4-pyrimidinediamine] | – | < 10 µM
10 | COC(=O)CN1C(=O)C(C)(C)Oc2ccc(N(CC(=O)OC)c3nc(Nc4cc(OC)c(OC)c(OC)c4)ncc3F)nc21 [Compound 691, N4-(2,2-Dimethyl-4-carbomethoxymethyl-3-oxo-5-pyrid[1,4]oxazin-6-yl)-5-fluoro-N4-carbomethoxymethyl-N2-(3,4,5-trimethoxyphenyl)-2,4-pyrimidinediamine] | < 10 µM | –
11 | COc1cc(Nc2ncc(F)c(Nc3ccc4c(n3)NC(=O)C(C)(C)O4)n2)cc(OC)c1OCCN1CCOCC1 [Compound 692, N2-[3,5-Dimethoxy-4-(2-(N-morpholino)ethyloxo)phenyl]-N4-(2,2-dimethyl-3-oxo-4H-5-pyrid[1,4]oxazin-6-yl)-5-fluoro-2,4-pyrimidinediamine] | < 10 µM | < 10 µM
12 | CC1(C)Oc2ccc(Nc3ncc(F)c(Nc4ccc5c(n4)NC(=O)C(C)(C)O5)n3)nc2NC1=O [Compound 693, N2,N4-Bis(2,2-dimethyl-3-oxo-4H-5-pyrid[1,4]oxazin-6-yl)-5-fluoro-2,4-pyrimidinediamine] | < 10 µM | –
13 | Cc1nn(C)c2cc(Nc3ncc(F)c(Nc4ccc5c(n4)NC(=O)C(C)(C)O5)n3)ccc12 [Compound 812, N2-(1,3-Dimethylindazol-6-yl)-N4-(2,2-dimethyl-3-oxo-4H-5-pyrid[1,4]oxazin-6-yl)-5-fluoro-2,4-pyrimidinediamine] | – | < 10 µM
14 | Cc1n[nH]c2cc(Nc3ncc(F)c(Nc4ccc5c(n4)NC(=O)C(C)(C)O5)n3)ccc12 [Compound 813, N4-(2,2-Dimethyl-3-oxo-4H-5-pyrid[1,4]oxazin-6-yl)-5-fluoro-N2-(3-methyl-1H-indazol-6-yl)-2,4-pyrimidinediamine] | – | < 10 µM
15 | COCCCn1ncc2cc(Nc3ncc(F)c(Nc4ccc5c(n4)NC(=O)C(C)(C)O5)n3)ccc21 [Compound 814, N4-(2,2-Dimethyl-3-oxo-4H-5-pyrid[1,4]oxazin-6-yl)-5-fluoro-N2-[1-(3-methoxypropyl)indazol-5-yl]-2,4-pyrimidinediamine] | – | < 10 µM
16 | CC1(C)Oc2ccc(Nc3nc(Nc4ccc5c(cnn5CCCN5C(=O)c6ccccc6C5=O)c4)ncc3F)cc2NC1=O [Compound 817, N4-(2,2-Dimethyl-3-oxo-4H-benz[1,4]oxazin-6-yl)-5-fluoro-N2-[1-[3-(N-phthalimidopropyl)]indazol-5-yl]-2,4-pyrimidinediamine] | – | < 10 µM
17 | C[C@@H]1Oc2ccc(Nc3nc(Nc4ccc5c(cnn5CCCN5C(=O)c6ccccc6C5=O)c4)ncc3F)cc2NC1=O [Compound 818, (S)-5-Fluoro-N4-(2-methyl-3-oxo-2H,4H-benz[1,4]oxazin-6-yl)-N2-[1-[3-(N-phthalimidopropyl)]indazol-5-yl]-2,4-pyrimidinediamine] | – | < 10 µM
18 | Cn1nc(N)c2cc(Nc3ncc(F)c(Nc4ccc5c(n4)NC(=O)C(C)(C)O5)n3)ccc21 [Compound 837, N2-(3-A mino-1-methylindazol-5-yl)-N4-(2,2-dimethyl-3-oxo-4H-5-pyrid[1,4]oxazin-6-yl)-5-fluoro-2,4-pyrimidinediamine] | < 10 µM | < 10 µM
19 | CC1(C)Oc2ccc(Nc3nc(Nc4ccc5c(cnn5CCCO)c4)ncc3F)nc2NC1=O [Compound 838, N4-(2,2-Dimethyl-3-oxo-4H-5-pyrid[1,4]oxazin-6-yl)-5-fluoro-N2-[1-(3-hydroxypropyl)indazol-5-yl]-2,4-pyrimidinediamine] | < 10 µM | < 10 µM
20 | COCCCn1ncc2ccc(Nc3ncc(F)c(Nc4ccc5c(n4)NC(=O)C(C)(C)O5)n3)cc21 [Compound 839, N4-(2,2-Dimethyl-3-oxo-4H-5-pyrid[1,4]oxazin-6-yl)-5-fluoro-N2-[1-(3-methoxypropyl)indazol-6-yl]-2,4-pyrimidinediamine] | < 10 µM | < 10 µM
21 | CC1(C)Oc2ccc(Nc3nc(Nc4ccc5c(cnn5CCCNS(=O)(=O)C(F)(F)F)c4)ncc3F)nc2NC1=O [Compound 844, N4-(2,2-Dimethyl-3-oxo-4H-5-pyrid[1,4]oxazin-6-yl)-5-fluoro-N2-[1-[3-(N-trifluoromethylsulfonylamino)propyl]indazol-5-yl]-2,4-pyrimidinediamine] | – | > 10 µM
22 | CC(C)(C)C(=O)NCCCn1ncc2cc(Nc3ncc(F)c(Nc4ccc5c(n4)NC(=O)C(C)(C)O5)n3)ccc21 [Compound 852, N4-(2,2-Dimethyl-3-oxo-4H-5-pyrido[1,4]oxazin-6-yl)-5-fluoro-N2-[1-(3-pivalamidopropyl)indazol-5-yl]-2,4-pyrimidinediamine] | – | < 10 µM
23 | CC1(C)Oc2ccc(Nc3nc(Nc4ccc5c(cnn5CCCN5C(=O)CCC5=O)c4)ncc3F)cc2NC1=O [Compound 855, N4-(2,2-Dimethyl-3-oxo-4H-benz[1,4]oxazin-6-yl)-5-fluoro-N2-[1-[3-(N-succinimidopropyl)]indazol-5-yl]-2,4-pyrimidinediamine] | < 10 µM | < 10 µM
24 | C[C@@H]1Oc2ccc(Nc3nc(Nc4ccc5c(cnn5CCCN5C(=O)CCC5=O)c4)ncc3F)cc2NC1=O [Compound 856, (S)-5-Fluoro-N4-(2-methyl-3-oxo-2H,4H-benz[1,4]oxazin-6-yl)-N2-[1-[3-(N-succinimidopropyl)]indazol-5-yl]-2,4-pyrimidinediamine] | < 10 µM | < 10 µM
25 | CC1(C)Oc2ccc(Nc3nc(Nc4ccc5c(cnn5CCCN5C(=O)CCC5=O)c4)ncc3F)nc2NC1=O [Compound 857, N4-(2,2-Dimethyl-3-oxo-4H-5-pyrid[1,4]oxazin-6-yl)-5-fluoro-N2-[1-[3-(N-succinimidopropyl)]indazol-5-yl]-2,4-pyrimidinediamine] | < 10 µM | < 10 µM
